Experiment in all cases: biochemical
Common to all, as to design: KINOMEscan active-site competition binding panel (468 kinase assays), per cent of control at 1000 nM
Common to all, as to conditions: KINOMEscan per cent of control (binding competition); read-out: Percent Control

One test concerns the target PIK3CA(Q546K) (Homo sapiens, UniProt P42336, Q546K). An excerpt:
(§1) Figure S7 / Percent Control

The target in another test is T1, p38-gamma (Homo sapiens, UniProt P53778).
T1 construct: gene MAPK12
Excerpt: as §1

In test [1] the target is T2, RPS6KA4(Kin.Dom.1-N-terminal) (Homo sapiens, UniProt O75676).
T2 construct: Kin.Dom.1-N-terminal
Excerpt: as §1

For another test, the target named is LTK (Homo sapiens, UniProt P29376).
Excerpt: as §1

Another test deals with T3, ADCK4 (Homo sapiens, UniProt Q96D53).
T3 construct: gene COQ8B
Excerpt: as §1

For another test, the target named is PDGFRA (Homo sapiens, UniProt P16234).
Excerpt: as §1

Another test concerns the target TGFBR1 (Homo sapiens, UniProt P36897).
Excerpt: as §1

For a further test, the target named is ANKK1 (Homo sapiens, UniProt Q8NFD2).
Excerpt: as §1

A further test has as its target PLK3 (Homo sapiens, UniProt Q9H4B4).
Excerpt: as §1

The next test deals with T4, p38-alpha (Homo sapiens, UniProt Q16539).
T4 construct: gene MAPK14
Excerpt: as §1

A further test addresses T5, NDR2 (Homo sapiens, UniProt Q9Y2H1).
T5 construct: gene STK38L
Excerpt: as §1

In the next test the target is T6, DCAMKL3 (Homo sapiens, UniProt Q9C098).
T6 construct: gene DCLK3
Excerpt: as §1

Another test addresses MYO3A (Homo sapiens, UniProt Q8NEV4).
Excerpt: as §1

The target in the next test is PRKG2 (Homo sapiens, UniProt Q13237).
Excerpt: as §1

The target of a further test is LATS2 (Homo sapiens, UniProt Q9NRM7).
Excerpt: as §1

In test [2] the target is T7, RSK3(Kin.Dom.2-C-terminal) (Homo sapiens, UniProt Q15349).
T7 construct: gene RPS6KA2; Kin.Dom.2-C-terminal
Excerpt: as §1

Test [3] has as its target T8, RPS6KA5(Kin.Dom.1-N-terminal) (Homo sapiens, UniProt O75582).
T8 construct: Kin.Dom.1-N-terminal
Excerpt: as §1

The target in the next test is NEK1 (Homo sapiens, UniProt Q96PY6).
Excerpt: as §1

For test [4], the target named is T9, ABL1(F317L)-nonphosphorylated (Homo sapiens, UniProt P00519, F317L).
T9 construct: nonphosphorylated
Excerpt: as §1

For another test, the target named is TAOK3 (Homo sapiens, UniProt Q9H2K8).
Excerpt: as §1

For the next test, the target named is PAK6 (Homo sapiens, UniProt Q9NQU5).
Excerpt: as §1

Another test concerns the target LATS1 (Homo sapiens, UniProt O95835).
Excerpt: as §1

For another test, the target named is PIK3CA(I800L) (Homo sapiens, UniProt P42336, I800L).
Excerpt: as §1

The target of another test is CSF1R (Homo sapiens, UniProt P07333).
Excerpt: as §1

The structures appear in SMILES notation.

T1 sequence (P53778 whole entry): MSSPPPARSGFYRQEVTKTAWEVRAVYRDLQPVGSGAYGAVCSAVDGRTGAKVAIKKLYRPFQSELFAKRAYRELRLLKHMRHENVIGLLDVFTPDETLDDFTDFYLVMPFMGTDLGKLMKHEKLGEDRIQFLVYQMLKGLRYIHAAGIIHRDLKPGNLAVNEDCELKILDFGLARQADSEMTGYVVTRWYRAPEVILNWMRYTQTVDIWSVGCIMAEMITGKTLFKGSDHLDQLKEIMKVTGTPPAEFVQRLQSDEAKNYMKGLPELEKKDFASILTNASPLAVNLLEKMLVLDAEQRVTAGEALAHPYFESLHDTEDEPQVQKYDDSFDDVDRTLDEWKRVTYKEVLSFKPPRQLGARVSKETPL
Sequence of TAOK3 (Q9H2K8 whole entry): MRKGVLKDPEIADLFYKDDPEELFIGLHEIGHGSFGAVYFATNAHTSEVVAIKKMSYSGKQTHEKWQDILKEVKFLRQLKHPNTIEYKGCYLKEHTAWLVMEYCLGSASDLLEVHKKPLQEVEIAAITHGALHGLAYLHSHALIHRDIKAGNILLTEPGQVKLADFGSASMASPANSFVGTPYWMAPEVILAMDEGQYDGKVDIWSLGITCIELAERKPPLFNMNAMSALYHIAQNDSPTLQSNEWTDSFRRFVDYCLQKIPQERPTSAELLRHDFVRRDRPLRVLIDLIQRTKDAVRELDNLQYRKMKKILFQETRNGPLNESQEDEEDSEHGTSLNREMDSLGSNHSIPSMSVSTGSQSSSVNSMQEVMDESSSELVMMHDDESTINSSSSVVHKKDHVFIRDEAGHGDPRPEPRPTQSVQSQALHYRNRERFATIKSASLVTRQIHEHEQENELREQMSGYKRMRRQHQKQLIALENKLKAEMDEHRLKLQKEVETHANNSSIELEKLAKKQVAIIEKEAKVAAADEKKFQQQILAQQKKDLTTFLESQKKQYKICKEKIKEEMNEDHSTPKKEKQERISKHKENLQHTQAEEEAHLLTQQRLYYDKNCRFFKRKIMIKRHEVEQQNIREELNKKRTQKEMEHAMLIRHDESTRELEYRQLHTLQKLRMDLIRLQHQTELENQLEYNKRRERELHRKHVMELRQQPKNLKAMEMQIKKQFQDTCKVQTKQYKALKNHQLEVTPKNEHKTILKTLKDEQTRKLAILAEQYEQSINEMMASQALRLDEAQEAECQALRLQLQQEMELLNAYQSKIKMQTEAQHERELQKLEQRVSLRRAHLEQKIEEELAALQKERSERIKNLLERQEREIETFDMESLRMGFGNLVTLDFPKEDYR
T9 sequence (P00519 whole entry F317L): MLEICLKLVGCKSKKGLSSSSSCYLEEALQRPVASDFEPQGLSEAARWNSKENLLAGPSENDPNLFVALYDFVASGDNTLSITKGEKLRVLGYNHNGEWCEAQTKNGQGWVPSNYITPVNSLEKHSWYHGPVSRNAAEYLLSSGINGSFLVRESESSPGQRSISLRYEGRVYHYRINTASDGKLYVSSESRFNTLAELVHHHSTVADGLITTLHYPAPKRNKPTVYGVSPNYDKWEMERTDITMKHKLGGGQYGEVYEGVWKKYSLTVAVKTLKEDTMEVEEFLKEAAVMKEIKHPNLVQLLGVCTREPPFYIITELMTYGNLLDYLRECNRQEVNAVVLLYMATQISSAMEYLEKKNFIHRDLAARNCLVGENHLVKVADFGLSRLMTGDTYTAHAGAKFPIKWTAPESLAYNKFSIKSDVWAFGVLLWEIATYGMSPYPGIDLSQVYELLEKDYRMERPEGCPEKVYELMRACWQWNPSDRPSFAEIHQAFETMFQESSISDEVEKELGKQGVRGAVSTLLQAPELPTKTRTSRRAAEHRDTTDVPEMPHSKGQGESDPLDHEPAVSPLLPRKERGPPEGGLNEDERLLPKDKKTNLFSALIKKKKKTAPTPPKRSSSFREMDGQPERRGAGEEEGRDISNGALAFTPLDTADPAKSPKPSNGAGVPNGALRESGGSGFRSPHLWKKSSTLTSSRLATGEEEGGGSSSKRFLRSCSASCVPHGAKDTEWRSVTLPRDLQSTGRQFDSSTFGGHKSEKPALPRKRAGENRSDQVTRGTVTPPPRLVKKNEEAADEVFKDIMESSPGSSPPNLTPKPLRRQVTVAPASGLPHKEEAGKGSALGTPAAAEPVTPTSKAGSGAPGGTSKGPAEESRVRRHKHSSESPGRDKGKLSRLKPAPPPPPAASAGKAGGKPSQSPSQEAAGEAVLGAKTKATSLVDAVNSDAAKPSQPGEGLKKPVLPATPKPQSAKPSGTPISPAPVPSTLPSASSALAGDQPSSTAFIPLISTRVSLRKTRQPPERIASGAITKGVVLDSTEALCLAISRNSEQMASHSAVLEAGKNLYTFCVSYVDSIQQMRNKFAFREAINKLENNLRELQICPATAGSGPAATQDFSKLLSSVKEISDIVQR
T4 sequence (Q16539 whole entry): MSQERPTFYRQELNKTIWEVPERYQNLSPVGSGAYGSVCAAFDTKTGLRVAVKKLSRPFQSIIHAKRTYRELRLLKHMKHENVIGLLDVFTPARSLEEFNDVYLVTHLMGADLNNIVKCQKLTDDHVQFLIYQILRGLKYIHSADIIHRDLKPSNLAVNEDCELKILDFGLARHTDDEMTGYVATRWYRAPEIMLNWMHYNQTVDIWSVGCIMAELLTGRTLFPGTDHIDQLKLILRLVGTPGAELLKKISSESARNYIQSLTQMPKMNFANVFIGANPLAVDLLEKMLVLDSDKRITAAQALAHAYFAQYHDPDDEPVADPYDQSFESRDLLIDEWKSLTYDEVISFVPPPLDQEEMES
T3 sequence (Q96D53 whole entry): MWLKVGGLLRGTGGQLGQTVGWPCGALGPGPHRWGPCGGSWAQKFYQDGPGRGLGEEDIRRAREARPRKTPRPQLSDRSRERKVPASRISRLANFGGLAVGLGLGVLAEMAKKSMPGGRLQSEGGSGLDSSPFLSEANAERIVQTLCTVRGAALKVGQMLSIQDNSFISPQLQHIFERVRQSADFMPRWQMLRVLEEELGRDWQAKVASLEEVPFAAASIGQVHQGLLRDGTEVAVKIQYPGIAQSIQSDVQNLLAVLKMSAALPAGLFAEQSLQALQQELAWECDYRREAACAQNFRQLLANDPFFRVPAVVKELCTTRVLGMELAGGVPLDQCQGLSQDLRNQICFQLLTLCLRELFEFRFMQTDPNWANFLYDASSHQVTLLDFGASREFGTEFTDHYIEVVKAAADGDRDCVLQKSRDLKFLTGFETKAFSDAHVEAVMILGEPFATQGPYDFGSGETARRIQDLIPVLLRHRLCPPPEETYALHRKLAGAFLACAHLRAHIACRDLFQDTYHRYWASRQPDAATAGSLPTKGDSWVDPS
Sequence of CSF1R (P07333 whole entry): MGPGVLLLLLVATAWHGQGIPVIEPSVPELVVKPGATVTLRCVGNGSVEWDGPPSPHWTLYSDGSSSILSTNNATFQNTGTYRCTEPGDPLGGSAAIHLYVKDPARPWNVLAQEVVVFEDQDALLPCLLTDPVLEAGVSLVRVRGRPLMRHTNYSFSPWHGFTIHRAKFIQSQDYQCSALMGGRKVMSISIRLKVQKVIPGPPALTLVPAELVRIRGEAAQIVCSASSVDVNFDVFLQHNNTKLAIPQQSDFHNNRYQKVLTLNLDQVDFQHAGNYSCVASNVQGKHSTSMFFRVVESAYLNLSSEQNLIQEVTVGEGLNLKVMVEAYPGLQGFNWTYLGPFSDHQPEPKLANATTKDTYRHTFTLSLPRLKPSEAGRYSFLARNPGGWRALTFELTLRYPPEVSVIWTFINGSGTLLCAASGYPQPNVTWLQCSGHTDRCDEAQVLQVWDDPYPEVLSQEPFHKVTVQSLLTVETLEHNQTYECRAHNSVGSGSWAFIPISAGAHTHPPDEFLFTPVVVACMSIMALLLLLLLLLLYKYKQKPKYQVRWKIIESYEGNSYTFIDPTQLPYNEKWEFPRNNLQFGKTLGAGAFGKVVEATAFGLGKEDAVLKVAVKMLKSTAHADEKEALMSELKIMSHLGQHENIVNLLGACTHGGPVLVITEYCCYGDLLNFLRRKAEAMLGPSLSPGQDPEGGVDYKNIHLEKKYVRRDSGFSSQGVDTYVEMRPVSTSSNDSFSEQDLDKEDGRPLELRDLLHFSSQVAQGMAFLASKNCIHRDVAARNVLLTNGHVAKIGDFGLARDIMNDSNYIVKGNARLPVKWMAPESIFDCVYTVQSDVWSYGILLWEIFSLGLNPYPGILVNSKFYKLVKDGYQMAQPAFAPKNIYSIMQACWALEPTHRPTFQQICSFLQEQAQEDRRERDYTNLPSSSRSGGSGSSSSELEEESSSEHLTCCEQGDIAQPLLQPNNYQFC
T8 sequence (O75582 whole entry): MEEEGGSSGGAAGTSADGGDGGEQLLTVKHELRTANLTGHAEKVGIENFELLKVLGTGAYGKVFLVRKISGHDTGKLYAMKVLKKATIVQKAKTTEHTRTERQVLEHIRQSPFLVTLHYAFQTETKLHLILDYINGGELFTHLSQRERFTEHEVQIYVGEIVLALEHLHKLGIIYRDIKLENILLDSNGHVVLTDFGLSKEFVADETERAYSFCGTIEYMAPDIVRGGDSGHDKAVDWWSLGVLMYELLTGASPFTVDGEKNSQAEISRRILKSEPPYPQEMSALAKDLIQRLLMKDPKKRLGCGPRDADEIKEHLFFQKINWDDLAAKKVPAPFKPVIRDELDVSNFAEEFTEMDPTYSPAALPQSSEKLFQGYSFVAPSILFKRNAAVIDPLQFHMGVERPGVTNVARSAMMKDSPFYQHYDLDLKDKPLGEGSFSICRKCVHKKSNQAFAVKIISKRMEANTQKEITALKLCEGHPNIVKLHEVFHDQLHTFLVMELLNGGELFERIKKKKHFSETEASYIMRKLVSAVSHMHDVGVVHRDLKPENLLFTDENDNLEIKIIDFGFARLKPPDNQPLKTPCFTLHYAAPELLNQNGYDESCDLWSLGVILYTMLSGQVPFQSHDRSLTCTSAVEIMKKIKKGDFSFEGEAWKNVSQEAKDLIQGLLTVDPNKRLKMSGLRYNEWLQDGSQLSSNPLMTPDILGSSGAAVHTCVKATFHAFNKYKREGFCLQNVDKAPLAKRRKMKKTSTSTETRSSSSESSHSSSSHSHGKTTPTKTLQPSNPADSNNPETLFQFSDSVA

For `Cn1c(=O)[nH]c2ccc(-c3cccc(C(=O)NC4CCn5ccnc5C4)c3)cc21` (stereo not drawn) [Z36-MP5], the remaining binding at 1 µM on PIK3CA(Q546K) was 54%; on p38-gamma, 78%; in test [1], 90%; at LTK, 82%; on ADCK4, 64%; on PDGFRA, 75%. For the same molecule, the remaining binding at 1 µM was found to be 90% at TGFBR1; 60% on ANKK1; 68% on PLK3; 63% on p38-alpha; 74% on NDR2; 92% on DCAMKL3. The remaining binding at 1 µM on MYO3A came to 100%; on PRKG2, 88%; on LATS2, 95%; in [2], 81%; in [3], 75%; at NEK1, 81%. For the same molecule, the remaining binding at 1 µM amounted to 82% in test [4]; 54% on TAOK3; 91% at PAK6; 100% on LATS1; 94% at PIK3CA(I800L); 91% on CSF1R.

The values above are taken from PMC10924921, “Mi-2β promotes immune evasion in melanoma by activating EZH2 methylation” (Nature Communications, 2024).
